Values quoted from earlier work, collected in US20080311191A1, “Multi-Layer Tablets and Bioadhesive Dosage Forms” (priority 2004, published 2008).
Read-outs that look alike come from different tables or passages of the source.

What was measured:
[1] = not given; remark: listed apart in the source

SMILES	water solubility	GI permeability [1]	water solubility [1]	solubility in water at pH<3.5 ([1]; pH<3.5)
Nc1nc2c(ncn2COCCO)c(=O)[nH]1 [Acyclovir, acyclovir]	moderate			
CCC(C)n1ncn(-c2ccc(N3CCN(c4ccc(OCC5COC(Cn6cncn6)(c6ccc(Cl)cc6Cl)O5)cc4)CC3)cc2)c1=O (stereo not shown) [Itraconazole, itraconazole]		good	negligible	slightly soluble
